Test results from ChEMBL document CHEMBL1146323, “Design, synthesis, and evaluation of efflux substrate-metal chelator conjugates as potential antimicrobial agents” (2007).
In brackets after ≈: the same amount, converted by molar mass. Activity calls are given as the source filed them. No cut-off for these calls is given here.

Legend:
Escherichia coli [1] = assay: Antimicrobial activity against Escherichia coli MC4100 assessed as inhibition zone at >2 mg/mL; format: functional, organism-based
Bacillus subtilis = assay: Antimicrobial activity against Bacillus subtilis; format: functional
Escherichia coli [2] = assay: Antimicrobial activity against Escherichia coli MC4100; format: functional

`O=C(CCN1c2ccccc2Sc2ccc(C(F)(F)F)cc21)NCc1ccc(CN2CCOCCOCCOCCOCC2)cc1` was tested, and the Activity (Escherichia coli [1]) was “inactive” and the MIC (Bacillus subtilis) was 500 µg/mL (≈ 758 µM).
In the case of `O=C(CCCCCN1c2ccccc2Sc2ccccc21)OCc1ccc(-c2cc(-c3ccccn3)nc(-c3ccccn3)c2)cc1`, the Activity (Escherichia coli [1]) is reported as “inactive” and the MIC (Bacillus subtilis) is reported as 500 µg/mL (≈ 788 µM).
With `O=C(CCCCCN1c2ccccc2Sc2ccccc21)NCc1ccc(CN(Cc2ccccn2)Cc2ccccn2)cc1` the Activity (Escherichia coli [1]) was “inactive” and the MIC (Bacillus subtilis) was 7.8 µg/mL (≈ 12.7 µM).
With `O=C(CCN1c2ccccc2Sc2ccccc21)NCc1ccc(CN(Cc2ccccn2)Cc2ccccn2)cc1` the Activity (Escherichia coli [1]) was “inactive” and the MIC (Bacillus subtilis) was 30 µg/mL (≈ 52.5 µM).
`O=C(CN1c2ccccc2Sc2ccccc21)NCc1ccc(CN2CCCNCCNCCCNCC2)cc1` gave an MIC (Escherichia coli [2]) of 2000 µg/mL (≈ 3580 µM) and an MIC (Bacillus subtilis) of 7.8 µg/mL (≈ 14 µM).
For `NC[C@H]1O[C@H](O[C@H]2[C@H](O)[C@@H](O[C@H]3O[C@H](CO)[C@@H](O)[C@H](N)[C@H]3O)[C@H](N)C[C@@H]2N)[C@H](O)[C@@H](O)[C@@H]1O` [KANAMYCIN], the MIC (Bacillus subtilis) was < 3 µg/mL.
For `O=C(CCN1c2ccccc2Sc2ccccc21)NCc1ccc(CN2CCOCCOCCOCCOCC2)cc1`, the Activity (Escherichia coli [1]) was “inactive” and the MIC (Bacillus subtilis) was 2000 µg/mL (≈ 3380 µM).
Compound `c1ccc2c(c1)Nc1ccccc1S2` [PHENOTHIAZINE] has an MIC (Bacillus subtilis) of 500 µg/mL (≈ 2510 µM).
For `CC1(C)S[C@@H]2[C@H](NC(=O)[C@H](N)c3ccccc3)C(=O)N2[C@H]1C(=O)O` [AMPICILLIN], the MIC (Bacillus subtilis) was 25 µg/mL (≈ 71.5 µM).
In the case of `O=C(CCN1c2ccccc2Sc2ccc(C(F)(F)F)cc21)NCc1ccc(CN(Cc2ccccn2)Cc2ccccn2)cc1`, the Activity (Escherichia coli [1]) is reported as “inactive” and the MIC (Bacillus subtilis) is reported as 16 µg/mL (≈ 25 µM).
With `O=C(CCN1c2ccccc2Sc2ccccc21)OCc1ccc(-c2cc(-c3ccccn3)nc(-c3ccccn3)c2)cc1` the Activity (Escherichia coli [1]) was “inactive”.
With `O=C(CCCCCN1c2ccccc2Sc2ccccc21)NCc1ccc(CN2CCOCCOCCOCCOCC2)cc1` the Activity (Escherichia coli [1]) was “inactive” and the MIC (Bacillus subtilis) was 60 µg/mL (≈ 94.7 µM).
